Counter-ions that a name gives are not always drawn.
Tests used:
Jurkat = assay: In vitro cytotoxicity, IC50 by flow cytometry (Guava ViaCount); format: cell-based; conditions: Jurkat cells
Procedure: (§1) Human cancer cell line HeLa, HL60, A2780 was obtained from the HPA Culture Collections (Salisbury, UK). Cells (Jurkat, K562, U937, Hek293, Fibroblasts) were purchased from Russian Cell Culture Collection (Institute of Cytology of the Russian Academy of Sciences, […], Russia) and cultured according to standard protocols and sterile technique. […] Cells were maintained in RPMI 1640 (Jurkat, K562, U937, HL60) (Gibco, Billings, MT, USA) supplemented with […], 10% FBS (Sigma) and 100 units/mL penicillin–streptomycin (Sigma). All types of cells were grown in an atmosphere of 5% CO2 at 37 °C. The cells were subcultured at 2–3 days intervals. Cells were then seeded in 24-well plates at 5 × 10^4 cells per well and incubated overnight. Jurkat, K562, U937, HL60 cells were subcultured at 2-day intervals with a seeding density of 1 × 10^5 cells per 24-well plates in RPMI with 10% FBS.
(§2) The antitumor activity of the synthesized ionic compounds was initially assessed in vitro on Jurkat, K562, U937, HL60, HEK293, A2780 cell lines, including the determination of IC50 by flow cytometry involving Guava ViaCount (Millipore) reagent kits.

U937 = assay: as above; format: cell-based
Procedure: as §1, §2

HEK293 = assay: as above; format: cell-based; conditions: conditionally normal
Procedure: as §1, §2

K562 = assay: as above; format: cell-based
Procedure: as §1, §2

HL60 = assay: as above; format: cell-based, human
Procedure: as §1, §2

A2780 = assay: as above; format: cell-based, human
Procedure: as §1, §2

[1] = tested on: mitochondria of Jurkat tumor cells; assay: Mitochondrial damage (MitoSense Red staining); format: cell-based; conditions: compound at IC50 concentration, incubation 2 h
Jurkat cells [2] = assay: Apoptosis/necrosis induction (Annexin V Alexa Fluor488, 7AAD staining); format: cell-based; conditions: compound at IC50 concentration, incubation 2 h
Description: Multiparametric evaluation of marker molecules, along with the detection of damage to the mitochondrial membrane, makes it possible to clearly determine the type of cell death. The method of cell staining with three different dyes (Annexin V Alexa Fluor488, 7AAD and MitoSense Red) provides simultaneous specification of various aspects of the state of the cell membrane, the state of DNA and the viability of mitochondria; together, it is a reliable sign of intrinsic and mitochondrial apoptosis pathway. Normal cells with intact mitochondrial membranes have high MitoSense Red fluorescence, while cells with decoupled oxidation and phosphorylation have much lower fluorescence. […]
Figure 1 The ratio of the level of mito-damage and the level of apoptosis in Jurkat cells of ionic compounds based on ursolic, oleanolic and betulinic acids.

Chk1 = assay: Luminex xMAP DNA Damage/Genotoxicity panel, phosphorylated Chk1; format: cell-based; conditions: Jurkat cells; 12a 0.006 µM, 13d 0.004 µM per 100,000 cells; 6 and 12 h
Description: [Worded in the source for another target; used here, by the source, with some conditions changed.] (§3) The determination of proteins in a cell by Luminex xMAP technology is characterized by the presence of multiplex multiparametric analysis with the simultaneous use of a multiplex of antibodies with a fluorescent label and magnetic particles, thereby resulting in an increase in the sensitivity of the technique and expansion of the dynamic range, as well as an increase in detection accuracy. Luminex XMAP technology provides a simultaneous analysis of a sufficient number of different proteins in various types of biological fluids (plasma, serum, cerebrospinal fluid, follicular fluid, tissue lysate, etc.) and in cell supernatants. Consequently, multiplexing saves time/costs and ensures the same conditions for the measurements, which is essential for significance and statistical processing.
(§4) Magnetic microspheres (stained inside with two fluorescent dyes) in combination with monoclonal antibodies against the analyzed analytes (the main intracellular kinases in this case) are incubated with the samples and standards; then, the samples/standards are incubated with biotinylated monoclonal antibodies against the analyzed analytes and, finally, with a solution of streptavidin–phycoerythrin. The Luminex technology identifies the different proteins present in each well and converts the mean fluorescence intensity (MFI) of each measured cytokine to pg/mL using software and standard curves. This approach is successfully applied in fundamental and clinical research. In this work, we analyzed various protein analytes that make up the phosphorylated and non-phosphorylated fractions of the main kinases in the signaling pathways: CREB, JNK, NFkB, p38, ERK1/2, Akt, p70S6K, STAT3, STAT5 proteins in six samples of lysates of Jurkat tumor cells by Luminex technology (MILLIPLEX® MAP 9-Plex Multi-Pathway 9-plex Magnetic Bead Kit).

Chk2 = assay: Luminex xMAP DNA Damage/Genotoxicity panel, phosphorylated Chk2; format: cell-based; conditions: Jurkat cells; 12a 0.006 µM, 13d 0.004 µM per 100,000 cells; 6 and 12 h
Description: [Worded in the source for another target; used here, by the source, with some conditions changed.] as §3, §4

Jurkat cells [3] = assay: Cell cycle analysis (Guava Cell Cycle Reagent); format: cell-based; conditions: IC50 concentration, 24 h, flow histogram
Procedure: Our findings are consistent with the literature data that many ICs predominantly affect the G2 and S phases, reducing them.
The incubation time of ionic liquids with cells was 24 h. […] It is listed because the picture prints the label with values. / The fit parameters printed in each histogram (RMS, Mean G1, Mean G2, G2/G1, CV G1, CV G2) were left out as statistics of the cell-cycle model.

γH2AX = assay: Luminex xMAP DNA Damage/Genotoxicity panel, phosphorylated γH2AX; format: cell-based; conditions: Jurkat cells; first six hours of incubation
Description: as §3, with “processing. Simultaneous measurement of cytokines by bead multiplex analysis has certain similarities with ELISA, in particular the use of antibodies, but has a fundamental difference in using magnetic fluorescent beads coupled to antikinase monoclonal antibodies.” for “processing.”
as §4
Phosphorylation of histone H2AX at serine 139 (γH2AX) is an early stage in the cellular response to DNA damage, when the damage brings about formation of a double-strand break (DSB). γH2AX foci, considered as markers of DNA double-strand breaks, are easily detected by immunofluorescence microscopy and flow cytometry. The two main signaling pathways ATM/Chk2 and ATR/Chk1 respond to DNA damage and both lead to H2AX phosphorylation, but the ATR/Chk1 pathway causes γH2AX formation to a much lesser extent. The role of γH2AX in DNA repair is also discussed.
Incubation time with the test compounds was 6 and 12 h. p < 0.001 (***).

ATR kinase = assay: Luminex xMAP DNA Damage/Genotoxicity panel, ATR kinase content; format: cell-based; conditions: Jurkat cells; 12a 0.006 µM, 13d 0.004 µM per 100,000 cells; 6 and 12 h
[4] = Homo sapiens, U-937, U937 cells
[5] = Homo sapiens, HEK293, HEK293 cells
[6] = Homo sapiens, HL-60, HL60 cells
[7] = Homo sapiens, A2780, A2780 cells

C[n+]1ccn(CCCCOC(=O)[C@]23CCC(C)(C)CC2C2=CCC4[C@@]5(C)CC[C@H](O)C(C)(C)C5CC[C@@]4(C)[C@]2(C)CC3)c1 (stereo partly drawn) (as salt: bromide) [9b, 1-(4-{[(3β)-3-Hydroxyolean-12-en-28-oyl]oxy}butyl)-3-methylimidazolium bromide]
melting point: 148 to 150 °C

CC(=O)O[C@H]1CC[C@@]2(C)C(CC[C@]3(C)C2CC=C2C4CC(C)(C)CC[C@]4(C(=O)OCCCCCCn4cc[n+](C)c4)CC[C@]23C)C1(C)C (stereo partly drawn) (as salt: bromide) [9d, 1-(6-{[(3β)-3-Acetyloxyolean-12-en-28-oyl]oxy}hexyl)-3-methylimidazolium bromide]
melting point: 151 to 153 °C

C[n+]1ccn(CCCCCCOC(=O)[C@]23CCC(C)(C)CC2C2=CCC4[C@@]5(C)CC[C@H](O)C(C)(C)C5CC[C@@]4(C)[C@]2(C)CC3)c1.O=S(=O)([O-])c1ccccc1 (stereo partly drawn) [13e, 1-(6-{[(3β)-3-Hydroxyolean-12-en-28-oyl]oxy}hexyl)-3-methylimidazolium Benzenesulfonate]
IC50 (Jurkat): 11 ± 1 nM | IC50 (U937; U937 cells): 14 ± 1 nM | IC50 (HEK293; HEK293 cells): 46 ± 4 nM | IC50 (K562; K562 cells): 17 ± 1 nM | IC50 (HL60; HL60 cells): 4 ± 1 nM | IC50 (A2780; A2780 cells): 24 ± 2 nM | Mito-Damage (%) [1]: 7.71% | Apoptosis (%) Early (Jurkat cells [2]): 6.26% | Apoptosis (%) Late (Jurkat cells [2]): 3.12% | Apoptosis (%) Necrosis (Jurkat cells [2]): 1.52%

C=C(C)[C@@H]1CC[C@]2(C(=O)[O-])CC[C@]3(C)[C@H](CC[C@@H]4[C@@]5(C)CC[C@H](O)C(C)(C)[C@@H]5CC[C@]43C)[C@@H]12.CCn1cc[n+](C)c1 [17a, 1-Ethyl-3-methylimidazolium (3β)-3-hydroxyolup-20(29)-en28-oylate]
IC50 (Jurkat): 18 ± 1 nM | IC50 (U937; U937 cells): 34 ± 2 nM | IC50 (HEK293; HEK293 cells): 182 ± 17 nM | IC50 (K562; K562 cells): 41 ± 2 nM | IC50 (HL60; HL60 cells): 17 ± 2 nM | IC50 (A2780; A2780 cells): 81 ± 8 nM | Mito-Damage (%) [1]: 8.84% | Apoptosis (%) Early (Jurkat cells [2]): 2.91% | Apoptosis (%) Late (Jurkat cells [2]): 1.38% | Apoptosis (%) Necrosis (Jurkat cells [2]): 3.30%

N#CC(C#N)=NNc1cccc(Cl)c1 [CCCP]
content of phosphorylated checkpoint kinase Chk1 (Chk1): significantly decreases | content of phosphorylated checkpoint kinase Chk2 (Chk2): significantly decreases

N.N.[Cl][Pt][Cl] [cisplatin, reference compound]
Freq Sub-G1 (hypodiploid cell population) (Jurkat cells [3]): 32.27%

CC(=O)O[C@H]1CC[C@@]2(C)C(CC[C@]3(C)C2CC=C2C4CC(C)(C)CC[C@]4(C(=O)OCCCCCCOC(=O)c4nccn4C)CC[C@]23C)C1(C)C (stereo partly drawn) [compound 3, 6-{[(1-Methyl-1H-imidazol-2-yl)carbonyl]oxy}hexyl (3β)-3-(acetyloxy)olean-12-en-28-oate]
IC50 (Jurkat; Homo sapiens, Jurkat): > 4000 nM | IC50 (U937; [4]): > 4000 nM | IC50 (HEK293; [5]): > 4000 nM | IC50 (K562; Homo sapiens, K562, K562 cells): > 4000 nM | IC50 (HL60; [6]): > 4000 nM | IC50 (A2780; [7]): > 4000 nM | melting point: 134 to 136 °C

CC(=O)O[C@H]1CC[C@@]2(C)C(CC[C@]3(C)C2CC=C2C4CC(C)(C)CC[C@]4(C(=O)OCCCCCCOC(=O)c4cncn4C)CC[C@]23C)C1(C)C (stereo partly drawn) [compound 4, 6-{[(1-Methyl-1H-imidazol-5-yl)carbonyl]oxy}hexyl (3β)-3-(acetyloxy)olean-12-en-28-oate]
IC50 (Jurkat; Homo sapiens, Jurkat): > 4000 nM | IC50 (U937; [4]): > 4000 nM | IC50 (HEK293; [5]): > 4000 nM | IC50 (K562; Homo sapiens, K562, K562 cells): > 4000 nM | IC50 (HL60; [6]): > 4000 nM | IC50 (A2780; [7]): > 4000 nM | melting point: 123 to 125 °C

CO[C@H]1C[C@@H]2CC[C@@H](C)[C@@](O)(O2)C(=O)C(=O)N2CCCC[C@H]2C(=O)O[C@H]([C@H](C)C[C@@H]2CC[C@@H](O)[C@H](OC)C2)CC(=O)[C@H](C)/C=C(\C)[C@@H](O)[C@@H](OC)C(=O)[C@H](C)C[C@H](C)/C=C/C=C/C=C/1C [rapamycin, reference compound]
increase in the phosphorylated γH2AX histone fraction (γH2AX): ~9000 times | content of phosphorylated checkpoint kinase Chk1 (Chk1): significantly decreases | level of ATR kinase (ATR kinase): elevated levels | content of phosphorylated checkpoint kinase Chk2 (Chk2): significantly decreases

CN[C@@H]1C[C@H]2O[C@@](C)([C@@H]1OC)n1c3ccccc3c3c4c(c5c6ccccc6n2c5c31)C(=O)NC4 [staurosporine]
increase in the phosphorylated γH2AX histone fraction (γH2AX): ~9000 times | content of phosphorylated checkpoint kinase Chk1 (Chk1): significantly decreases | content of phosphorylated checkpoint kinase Chk2 (Chk2): significantly decreases

CC(C)[C@@H]1NC(=O)[C@H](C)OC(=O)[C@@H](C(C)C)NC(=O)[C@@H](C(C)C)OC(=O)[C@H](C(C)C)NC(=O)[C@H](C)OC(=O)[C@@H](C(C)C)NC(=O)[C@@H](C(C)C)OC(=O)[C@H](C(C)C)NC(=O)[C@H](C)OC(=O)[C@@H](C(C)C)NC(=O)[C@@H](C(C)C)OC1=O [valinomycin]
content of phosphorylated checkpoint kinase Chk1 (Chk1): significantly decreases | level of ATR kinase (ATR kinase): elevated levels | content of phosphorylated checkpoint kinase Chk2 (Chk2): significantly decreases

Source: PMC9913425, “Pentacyclic Triterpenoids-Based Ionic Compounds: Synthesis, Study of Structure–Antitumor Activity Relationship, Effects on Mitochondria and Activation of Signaling Pathways of Proliferation, Genome Reparation and Early Apoptosis” (Cancers, 2023)
